Assays:
DNA = test: Binding affinity to calf thymus DNA assessed as change in melting temperature at a compound to DNA molar ratio of 1:5 at pH 7 by thermal denaturation assay; assay type: nucleic-acid assay; conditions: Bos taurus
OVCAR-3 = test: Growth inhibition of human OVCAR-3 cells after 48 hrs by sulforhodamine B protein assay; assay type: functional; conditions: OVCAR-3, 48 h
SNB-19 = test: Growth inhibition of human SNB19 cells after 48 hrs by sulforhodamine B protein assay; assay type: functional; conditions: SNB-19, 48 h
MOLT-4 = test: Growth inhibition of human MOLT4 cells after 48 hrs by sulforhodamine B protein assay; assay type: functional; conditions: MOLT-4, 48 h
LOX IMVI = test: Growth inhibition of human LOXIMVI cells after 48 hrs by sulforhodamine B protein assay; assay type: functional
SW-620 = test: Growth inhibition of human SW620 cells after 48 hrs by sulforhodamine B protein assay; assay type: functional; conditions: SW-620, 48 h
KM12 = test: Growth inhibition of human KM12 cells after 48 hrs by sulforhodamine B protein assay; assay type: functional; conditions: KM12, 48 h
SR = test: Growth inhibition of human SR cells after 48 hrs by sulforhodamine B protein assay; assay type: functional
NCI-H460 = test: Growth inhibition of human NCI-H460 cells after 48 hrs by sulforhodamine B protein assay; assay type: functional; conditions: NCI-H460, 48 h
CCRF-CEM = test: Growth inhibition of human CCRF-CEM cells after 48 hrs by sulforhodamine B protein assay; assay type: functional
SK-MEL-28 = test: Growth inhibition of human SK-MEL-28 cells after 48 hrs by sulforhodamine B protein assay; assay type: functional; conditions: SK-MEL-28, 48 h
NCI-H322M = test: Growth inhibition of human NCI-H322M cells after 48 hrs by sulforhodamine B protein assay; assay type: functional
TK-10 = test: Growth inhibition of human TK10 cells after 48 hrs by sulforhodamine B protein assay; assay type: functional; conditions: TK-10, 48 h
HT-29 = test: Growth inhibition of human HT-29 cells after 48 hrs by sulforhodamine B protein assay; assay type: functional; conditions: HT-29, 48 h
A498 = test: Growth inhibition of human A498 cells after 48 hrs by sulforhodamine B protein assay; assay type: functional; conditions: A498, 48 h
HCC 2998 = test: Growth inhibition of human HCC2998 cells after 48 hrs by sulforhodamine B protein assay; assay type: functional; conditions: HCC 2998, 48 h
A549 = test: Growth inhibition of human A549 cells after 48 hrs by sulforhodamine B protein assay; assay type: functional; conditions: A549, 48 h
SF-539 = test: Growth inhibition of human SF539 cells after 48 hrs by sulforhodamine B protein assay; assay type: functional; conditions: SF-539, 48 h
HOP-62 = test: Growth inhibition of human HOP62 cells after 48 hrs by sulforhodamine B protein assay; assay type: functional; conditions: HOP-62, 48 h
UO-31 = test: Growth inhibition of human UO31 cells after 48 hrs by sulforhodamine B protein assay; assay type: functional; conditions: UO-31, 48 h
ACHN = test: Growth inhibition of human ACHN cells after 48 hrs by sulforhodamine B protein assay; assay type: functional
T47D = test: Growth inhibition of human T47D cells after 48 hrs by sulforhodamine B protein assay; assay type: functional
BT-549 = test: Growth inhibition of human BT549 cells after 48 hrs by sulforhodamine B protein assay; assay type: functional; conditions: BT-549, 48 h
UACC-62 = test: Growth inhibition of human UACC62 cells after 48 hrs by sulforhodamine B protein assay; assay type: functional; conditions: UACC-62, 48 h
[1] = Growth inhibition of human Hs 578T cells after 48 hrs by sulforhodamine B protein assay; assay type: functional
HCT-15 = test: Growth inhibition of human HCT15 cells after 48 hrs by sulforhodamine B protein assay; assay type: functional; conditions: HCT-15, 48 h
MDA-MB-435 = test: Growth inhibition of human MDA-MB-435 cells after 48 hrs by sulforhodamine B protein assay; assay type: functional; conditions: MDA-MB-435, 48 h
PC-3 = test: Growth inhibition of human PC3 cells after 48 hrs by sulforhodamine B protein assay; assay type: functional; conditions: PC-3, 48 h
Malme-3M = test: Growth inhibition of human MALME-3M cells after 48 hrs by sulforhodamine B protein assay; assay type: functional
786-0 = test: Growth inhibition of human 786-0 cells after 48 hrs by sulforhodamine B protein assay; assay type: functional; conditions: 786-0, 48 h
[2] = target: T1, Type II restriction enzyme BamHI (Bacillus amyloliquefaciens) (UniProt P23940); test: Inhibition of Bacillus amyloliquefaciens BamH1-mediated pBR322 cleavage after 16 hrs by RED100-restriction endonuclease digestion assay
T1 sequence (whole entry): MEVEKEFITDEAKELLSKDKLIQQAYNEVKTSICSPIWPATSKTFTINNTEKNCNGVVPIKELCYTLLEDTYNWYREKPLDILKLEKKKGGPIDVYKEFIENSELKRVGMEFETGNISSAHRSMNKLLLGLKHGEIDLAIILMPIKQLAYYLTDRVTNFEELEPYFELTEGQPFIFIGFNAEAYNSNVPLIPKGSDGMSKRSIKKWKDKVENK

NCI-H226 = test: Growth inhibition of human NCI-H226 cells after 48 hrs by sulforhodamine B protein assay; assay type: functional; conditions: NCI-H226, 48 h
CAKI-1 = test: Growth inhibition of human Caki1 cells after 48 hrs by sulforhodamine B protein assay; assay type: functional; conditions: CAKI-1, 48 h
NCI-H522 = test: Growth inhibition of human NCI-H522 cells after 48 hrs by sulforhodamine B protein assay; assay type: functional; conditions: NCI-H522, 48 h
MCF7 = test: Growth inhibition of human MCF7 cells after 48 hrs by sulforhodamine B protein assay; assay type: functional; conditions: MCF7, 48 h
MDA-MB-231 = test: Growth inhibition of human MDA-MB-231 cells after 48 hrs by sulforhodamine B protein assay; assay type: functional; conditions: MDA-MB-231, 48 h
K562 = test: Growth inhibition of human K562 cells after 48 hrs by sulforhodamine B protein assay; assay type: functional; conditions: K562, 48 h
NCI-H23 = test: Growth inhibition of human NCI-H23 cells after 48 hrs by sulforhodamine B protein assay; assay type: functional; conditions: NCI-H23, 48 h
U-251 = test: Growth inhibition of human U251 cells after 48 hrs by sulforhodamine B protein assay; assay type: functional; conditions: U-251, 48 h
HCT-116 = test: Growth inhibition of human HCT116 cells after 48 hrs by sulforhodamine B protein assay; assay type: functional; conditions: HCT-116, 48 h
SF-295 = test: Growth inhibition of human SF295 cells after 48 hrs by sulforhodamine B protein assay; assay type: functional; conditions: SF-295, 48 h
COLO 205 = test: Growth inhibition of human COLO205 cells after 48 hrs by sulforhodamine B protein assay; assay type: functional; conditions: COLO 205, 48 h
OVCAR-8 = test: Growth inhibition of human OVCAR8 cells after 48 hrs by sulforhodamine B protein assay; assay type: functional; conditions: OVCAR-8, 48 h
DU-145 = test: Growth inhibition of human DU145 cells after 48 hrs by sulforhodamine B protein assay; assay type: functional; conditions: DU-145, 48 h
[3] = Growth inhibition of human […] cells after 48 hrs by sulforhodamine B protein assay; assay type: functional
OVCAR-5 = test: Growth inhibition of human OVCAR5 cells after 48 hrs by sulforhodamine B protein assay; assay type: functional; conditions: OVCAR-5, 48 h
OVCAR-4 = test: Growth inhibition of human OVCAR4 cells after 48 hrs by sulforhodamine B protein assay; assay type: functional; conditions: OVCAR-4, 48 h
EKVX = test: Growth inhibition of human EKVX cells after 48 hrs by sulforhodamine B protein assay; assay type: functional
SK-MEL-2 = test: Growth inhibition of human SK-MEL-2 cells after 48 hrs by sulforhodamine B protein assay; assay type: functional; conditions: SK-MEL-2, 48 h
SK-OV-3 = test: Growth inhibition of human SKOV3 cells after 48 hrs by sulforhodamine B protein assay; assay type: functional; conditions: SK-OV-3, 48 h
SN12C = test: Growth inhibition of human SN12C cells after 48 hrs by sulforhodamine B protein assay; assay type: functional
HL-60(TB) = test: Growth inhibition of human HL-60(TB) cells after 48 hrs by sulforhodamine B protein assay; assay type: functional; conditions: HL-60, 48 h
IGROV-1 = test: Growth inhibition of human IGROV1 cells after 48 hrs by sulforhodamine B protein assay; assay type: functional; conditions: IGROV-1, 48 h
SNB-75 = test: Growth inhibition of human SNB75 cells after 48 hrs by sulforhodamine B protein assay; assay type: functional; conditions: SNB-75, 48 h
UACC-257 = test: Growth inhibition of human UACC257 cells after 48 hrs by sulforhodamine B protein assay; assay type: functional; conditions: UACC-257, 48 h

COc1cc2c(cc1OCCCCCN1CCN(CCCCCOc3cc4c(cc3OC)C(=O)N3CC(F)(F)C[C@H]3C=N4)CC1)N=C[C@@H]1CC(F)(F)CN1C2=O
ΔTm (DNA): 13 °C

COc1cc2c(cc1OCCCOc1cc3c(cc1OC)C(=O)N1CC(F)(F)C[C@H]1C=N3)N=C[C@@H]1CC(F)(F)CN1C2=O
GI50 (OVCAR-3): 0.94 µM | GI50 (SNB-19): 0.35 µM | GI50 (MOLT-4): 0.08 µM | GI50 (LOX IMVI): 0.2 µM | GI50 (SW-620): 0.31 µM | GI50 (KM12): 2.07 µM | GI50 (SR): < 0.06 µM | GI50 (NCI-H460): < 0.08 µM | GI50 (CCRF-CEM): 0.41 µM | GI50 (SK-MEL-28): 1.13 µM | GI50 (NCI-H322M): 2.19 µM | GI50 (TK-10): 3.45 µM | GI50 (HT-29): 0.27 µM | GI50 (A498): 0.61 µM | GI50 (HCC 2998): 1.03 µM | GI50 (A549): 1.21 µM | GI50 (SF-539): 0.15 µM | GI50 (HOP-62): 0.1 µM | GI50 (UO-31): 1.05 µM | GI50 (ACHN): 0.65 µM | GI50 (T47D): 0.24 µM | GI50 (BT-549): 0.41 µM | GI50 (UACC-62): 0.41 µM | GI50 [1]: 0.17 µM | GI50 (HCT-15): 8.62 µM | GI50 (MDA-MB-435): 0.57 µM | GI50 (PC-3): < 0.08 µM | ΔTm (DNA): 13.1 °C | GI50 (Malme-3M): 1.03 µM | GI50 (786-0): < 0.01 µM | Activity [2]: Dose-dependent effect | GI50 (NCI-H226): 0.62 µM | GI50 (CAKI-1): < 0.01 µM | GI50 (NCI-H522): 0.14 µM | GI50 (MCF7): 0.13 µM | GI50 (MDA-MB-231): 0.8 µM | GI50 (K562): 0.53 µM | GI50 (NCI-H23): 0.49 µM | GI50 (U-251): 0.11 µM | GI50 (HCT-116): 0.13 µM | GI50 (SF-295): < 0.03 µM | GI50 (COLO 205): 0.58 µM | GI50 (OVCAR-8): 0.42 µM | GI50 (DU-145): 0.37 µM | GI50 [3]: 1.67 µM | GI50 (OVCAR-5): 0.75 µM | GI50 (OVCAR-4): 1.45 µM | GI50 (EKVX): 1.72 µM | GI50 (SK-MEL-2): 1.62 µM | GI50 (SK-OV-3): 0.6 µM | GI50 (SN12C): 0.17 µM | GI50 (HL-60(TB)): 0.25 µM | GI50 (IGROV-1): 0.11 µM | GI50 (SNB-75): 0.08 µM | GI50 (UACC-257): 1.33 µM
